According to patent US20240228469A1, “PCSK9 INHIBITORS AND METHODS OF USE THEREOF” (AstraZeneca AB, priority 2022, published 2024):

Columns and labels:
[1] = biological target: GSK3β (Glycogen synthase kinase-3 beta) (Homo sapiens, UniProt P49841); assay: Assay 6 GSK3β assay (ThermoFisher Z-Lyte FRET); type: biochemical; settings: ATP Conc: 10 μM, geometric mean; read-out: Assay 6 (GSK3β FRET-Z-Lyte Cr) GMean IC50
Procedure, shortened: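 Z-Lyte FRET: 0.22-0.92 ng kinase with 2 μM Ser/Thr 09 peptide in HEPES pH 7.5, MgCl2, EGTA, 60 min at room temperature, then 60 min development. Compounds in 1% DMSO, 10-point 3-fold series from 10 μM; sigmoidal dose-response fit.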

PCSK9 = PCSK9 (Homo sapiens, UniProt Q8NBP7, G670E/V474I); assay: Assay 3 PCSK9 LDL-C uptake assay in HepG2 cells; type: cell-based; set-up: TEV site (C); His6 (C); host or cells: added to HepG2 (ATCC #HB-8065); settings: 125 nM PCSK9, pHrodo Red-LDL, read-out: Assay 3 LDL uptake potency
Procedure, shortened: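 HepG2 cells were plated for 24 h, then exposed for 24 h at 37 °C to compounds (half-log series, 10 μM top) with 125 nM exogenous PCSK9. pHrodo Red-LDL ([…]) uptake was then imaged by fluorescence at 4 h and 24 h. Signal was normalized as % effect between DMSO and 100 nM evolocumab, with a four-parameter logistic fit.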

GSK3β (Glycogen synthase kinase-3 beta), sequence (P49841 whole entry): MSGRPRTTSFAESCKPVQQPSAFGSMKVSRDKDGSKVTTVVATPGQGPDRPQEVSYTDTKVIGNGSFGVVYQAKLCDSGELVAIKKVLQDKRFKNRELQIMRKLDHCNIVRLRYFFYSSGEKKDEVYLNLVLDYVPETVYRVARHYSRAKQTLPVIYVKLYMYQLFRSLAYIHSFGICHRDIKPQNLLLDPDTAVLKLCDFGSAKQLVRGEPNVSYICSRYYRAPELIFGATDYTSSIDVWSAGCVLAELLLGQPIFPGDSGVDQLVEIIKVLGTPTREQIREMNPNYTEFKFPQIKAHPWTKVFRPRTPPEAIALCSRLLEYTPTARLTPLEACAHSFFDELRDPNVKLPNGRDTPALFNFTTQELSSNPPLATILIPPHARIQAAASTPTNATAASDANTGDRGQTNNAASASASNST
PCSK9, sequence (Q8NBP7 with tags, fused parts or gaps V474I/G670E): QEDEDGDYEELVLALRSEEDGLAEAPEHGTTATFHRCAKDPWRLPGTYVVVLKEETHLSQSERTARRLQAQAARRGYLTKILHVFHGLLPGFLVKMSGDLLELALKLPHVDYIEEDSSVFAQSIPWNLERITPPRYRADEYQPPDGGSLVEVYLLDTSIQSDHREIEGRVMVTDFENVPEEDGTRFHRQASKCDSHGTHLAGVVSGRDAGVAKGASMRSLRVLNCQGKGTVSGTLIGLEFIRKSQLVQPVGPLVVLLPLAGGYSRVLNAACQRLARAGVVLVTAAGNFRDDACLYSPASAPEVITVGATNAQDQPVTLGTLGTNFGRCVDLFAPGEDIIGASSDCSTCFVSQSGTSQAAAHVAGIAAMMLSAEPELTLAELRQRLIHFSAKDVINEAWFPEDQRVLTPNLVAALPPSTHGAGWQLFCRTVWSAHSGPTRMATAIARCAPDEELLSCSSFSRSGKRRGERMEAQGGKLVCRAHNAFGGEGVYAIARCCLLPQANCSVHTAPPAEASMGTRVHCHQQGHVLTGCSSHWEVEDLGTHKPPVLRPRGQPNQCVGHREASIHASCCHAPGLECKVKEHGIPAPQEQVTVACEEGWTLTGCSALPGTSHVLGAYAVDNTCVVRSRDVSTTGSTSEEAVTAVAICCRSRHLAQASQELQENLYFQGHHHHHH

Row | SMILES | IC50 [1] [nM] | EC50 (PCSK9) [nM]
1 | O=c1ccccn1-c1ccc(N[C@H]2CC[C@H](Nc3ncc(C4CC4)nn3)C2)nc1 [Example 50, 6′-(((1S,3S)-3-((6-Cyclopropyl-1,2,4-triazin-3-yl)amino)cyclopentyl)amino)-2H-[1,3′-bipyridin]-2-one] | > 10000 | 300
2 | O=c1c(C(F)(F)F)cccn1-c1ccc(N[C@H]2CC[C@H](Nc3ncc(C4CC4)nn3)C2)nc1 [Example 51, 6′-(((1S,3S)-3-((6-Cyclopropyl-1,2,4-triazin-3-yl)amino)cyclopentyl)amino)-3-(trifluoromethyl)-2H-[1,3′-bipyridin]-2-one] | > 10000 | 100
3 | O=c1c(OC(F)(F)F)cccn1-c1ccc(N[C@H]2CC[C@H](Nc3ncc(C4CC4)nn3)C2)nc1 [Example 52, 6′-(((1S,3S)-3-((6-Cyclopropyl-1,2,4-triazin-3-yl)amino)cyclopentyl)amino)-3-(trifluoromethoxy)-2H-[1,3′-bipyridin]-2-one] | > 10000 | 100
4 | O=c1c(Cl)cccn1-c1ccc(N[C@H]2CC[C@H](Nc3ncc(C4CC4)nn3)C2)nc1 [Example 55, 3-Chloro-6′-(((1S,3S)-3-((6-cyclopropyl-1,2,4-triazin-3-yl)amino)cyclopentyl)amino)-2H-[1,3′-bipyridin]-2-one] | 1600 | 100
5 | N#Cc1ccc(=O)n(-c2ccc(N[C@H]3CC[C@H](Nc4ncc(C5CC5)nn4)C3)nc2)c1 [Example 56, 6′-(((1S,3S)-3-((6-Cyclopropyl-1,2,4-triazin-3-yl)amino)cyclopentyl)amino)-2-oxo-2H-[1,3′-bipyridine]-5-carbonitrile] | > 10000 | 300
6 | CN1CC(=O)N(c2ccc(N[C@H]3CC[C@H](Nc4ncc(C5CC5)nn4)C3)nc2)C1=O [Example 57, 3-(6-(((1S,3S)-3-((6-Cyclopropyl-1,2,4-triazin-3-yl)amino)cyclopentyl)amino)pyridin-3-yl)-1-methylimidazolidine-2,4-dione] | > 10000 | 500
7 | N#Cc1cccn(-c2ccc(N[C@H]3CC[C@H](Nc4ncc(C5CC5)nn4)C3)nc2)c1=O [Example 58, 6′-(((1S,3S)-3-((6-Cyclopropyl-1,2,4-triazin-3-yl)amino)cyclopentyl)amino)-2-oxo-2H-[1,3′-bipyridine]-3-carbonitrile] | > 10000 | 100
8 | CN1C(=O)CN(c2ccc(N[C@H]3CC[C@H](Nc4ncc(C5CC5)nn4)C3)nc2)C1=O [Example 62, 1-(6-(((1S,3S)-3-((6-Cyclopropyl-1,2,4-triazin-3-yl)amino)cyclopentyl)amino)pyridin-3-yl)-3-methylimidazolidine-2,4-dione] | > 10000 | 300
9 | Cn1c(=O)n(-c2ccc(N[C@H]3CC[C@H](Nc4ncc(C5CC5)nn4)C3)nc2)c2ncccc21 [Example 63, 3-(6-(((1S,3S)-3-((6-Cyclopropyl-1,2,4-triazin-3-yl)amino)cyclopentyl)amino)pyridin-3-yl)-1-methyl-1,3-dihydro-2H-imidazo[4,5-b]pyridin-2-one] | > 10000 | 100
10 | COc1cccn(-c2ccc(N[C@H]3CC[C@H](Nc4ncc(C5CC5)nn4)C3)nc2)c1=O [Example 64, 6′-(((1S,3S)-3-((6-Cyclopropyl-1,2,4-triazin-3-yl)amino)cyclopentyl)amino)-3-methoxy-2H-[1,3′-bipyridin]-2-one] | 385 | 200
11 | COc1ccc(=O)n(-c2ccc(N[C@H]3CC[C@H](Nc4ncc(C5CC5)nn4)C3)nc2)c1 [Example 65, 6′-(((1S,3S)-3-((6-Cyclopropyl-1,2,4-triazin-3-yl)amino)cyclopentyl)amino)-5-methoxy-2H-[1,3′-bipyridin]-2-one] | 14 | 500
12 | Cc1cccn(-c2ccc(N[C@H]3CC[C@H](Nc4ncc(C5CC5)nn4)C3)nc2)c1=O [Example 66, 6′-(((1S,3S)-3-((6-Cyclopropyl-1,2,4-triazin-3-yl)amino)cyclopentyl)amino)-3-methyl-2H-[1,3′-bipyridin]-2-one] | > 10000 | 100
13 | Cc1cnc(N[C@H]2CC[C@H](Nc3ccc(-n4ccccc4=O)cn3)C2)nn1 [Example 67, 6′-(((1S,3S)-3-((6-Methyl-1,2,4-triazin-3-yl)amino)cyclopentyl)amino)-2H-[1,3′-bipyridin]-2-one] | 2100 | 600
14 | C#CCNC(=O)c1cnc(N[C@H]2CC[C@H](Nc3ccc(-n4ccccc4=O)cn3)C2)nn1 [Example 69, 3-(((1S,3S)-3-((2-Oxo-2H-[1,3′-bipyridin]-6′-yl)amino)cyclopentyl)amino)-N-(prop-2-yn-1-yl)-1,2,4-triazine-6-carboxamide] | > 10000 | 200
15 | O=C(NC1COC1)c1cnc(N[C@H]2CC[C@H](Nc3ccc(-n4ccccc4=O)cn3)C2)nn1 [Example 70, N-(Oxetan-3-yl)-3-(((1S,3S)-3-((2-oxo-2H-[1,3′-bipyridin]-6′-yl)amino)cyclopentyl)amino)-1,2,4-triazine-6-carboxamide] | > 10000 | 200
16 | CNC(=O)c1cnc(N[C@H]2CC[C@H](Nc3ccc(-n4ccccc4=O)cn3)C2)nn1 [Example 75, N-Methyl-3-(((1S,3S)-3-((2-oxo-2H-[1,3′-bipyridin]-6′-yl)amino)cyclopentyl)amino)-1,2,4-triazine-6-carboxamide] | > 10000 | 700
17 | O=c1ccc(Cl)cn1-c1ccc(N[C@H]2CC[C@H](Nc3ncc(C4CC4)nn3)C2)nc1 [Example 112, 5-Chloro-6′-(((1S,3S)-3-((6-cyclopropyl-1,2,4-triazin-3-yl)amino)cyclopentyl)amino)-2H-[1,3′-bipyridin]-2-one] | 6400 | 200
18 | O=c1ccncn1-c1ccc(N[C@H]2CC[C@H](Nc3ncc(C4CC4)nn3)C2)nc1 [Example 114, 3-(6-(((1S,3S)-3-((6-Cyclopropyl-1,2,4-triazin-3-yl)amino)cyclopentyl)amino)pyridin-3-yl)pyrimidin-4(3H)-one] | > 10000 | 300
19 | Cn1c(=O)n(-c2ccc(N[C@H]3CC[C@H](Nc4ncc(C5CC5)nn4)C3)nc2)c2cc(C#N)ccc21 [Example 116, 3-(6-(((1S,3S)-3-((6-Cyclopropyl-1,2,4-triazin-3-yl)amino)cyclopentyl)amino)pyridin-3-yl)-1-methyl-2-oxo-2,3-dihydro-1H-benzo[d]imidazole-5-carbonitrile] | > 10000 | 100
20 | Cn1c(=O)n(-c2ccc(N[C@H]3CC[C@H](Nc4ncc(C5CC5)nn4)C3)nc2)c2ccc(C#N)cc21 [Example 117, 1-(6-(((1S,3S)-3-((6-Cyclopropyl-1,2,4-triazin-3-yl)amino)cyclopentyl)amino)pyridin-3-yl)-3-methyl-2-oxo-2,3-dihydro-1H-benzo[d]imidazole-5-carbonitrile] | > 10000 | 300
21 | O=c1cccnn1-c1ccc(N[C@H]2CC[C@H](Nc3ncc(C4CC4)nn3)C2)nc1 [Example 118] | > 10000 | 500
22 | Cn1c(=O)n(-c2ccc(N[C@H]3CC[C@H](Nc4ncc(C5CC5)nn4)C3)nc2)c2ccc(C(=O)O)cc21 [Example 121, 1-(6-(((1S,3S)-3-((6-Cyclopropyl-1,2,4-triazin-3-yl)amino)cyclopentyl)amino)pyridin-3-yl)-3-methyl-2-oxo-2,3-dihydro-1H-benzo[d]imidazole-5-carboxylic acid] | 5050 | 100
23 | Cc1cnc(N[C@H]2CC[C@H](Nc3ccc(-n4cc(C#N)ccc4=O)cn3)C2)nn1 [Example 128, 6′-(((1S,3S)-3-((6-Methyl-1,2,4-triazin-3-yl)amino)cyclopentyl)amino)-2-oxo-2H-[1,3′-bipyridine]-5-carbonitrile] | > 10000 | 800
24 | Cc1cnc(N[C@H]2CC[C@H](Nc3ccc(-n4cccc(Cl)c4=O)cn3)C2)nn1 [Example 129, 3-Chloro-6′-(((1S,3S)-3-((6-methyl-1,2,4-triazin-3-yl)amino)cyclopentyl)amino)-2H-[1,3′-bipyridin]-2-one] | 4850 | 100
25 | Cc1cnc(N[C@H]2CC[C@H](Nc3ccc(-n4cccc(C)c4=O)cn3)C2)nn1 [Example 131, 3-Methyl-6′-(((1S,3S)-3-((6-methyl-1,2,4-triazin-3-yl)amino)cyclopentyl)amino)-2H-[1,3′-bipyridin]-2-one] | > 10000 | 100
26 | COc1cccn(-c2ccc(N[C@H]3CC[C@H](Nc4ncc(C)nn4)C3)nc2)c1=O [Example 132, 3-Methoxy-6′-(((1S,3S)-3-((6-methyl-1,2,4-triazin-3-yl)amino)cyclopentyl)amino)-2H-[1,3′-bipyridin]-2-one] | 2060 | 100
27 | COc1ccc(=O)n(-c2ccc(N[C@H]3CC[C@H](Nc4ncc(C)nn4)C3)nc2)c1 [Example 133, 5-Methoxy-6′-(((1S,3S)-3-((6-methyl-1,2,4-triazin-3-yl)amino)cyclopentyl)amino)-2H-[1,3′-bipyridin]-2-one] | 32 | 400
28 | Cc1cnc(N[C@H]2CC[C@H](Nc3ccc(-n4cc(Cl)ccc4=O)cn3)C2)nn1 [Example 134, 5-Chloro-6′-(((1S,3S)-3-((6-methyl-1,2,4-triazin-3-yl)amino)cyclopentyl)amino)-2H-[1,3′-bipyridin]-2-one] | 439 | 500
